These results are taken from patent US6667333B2, “Herbicidal 3-(4,5 dihydroisoxazole- 3 yl) substituted benzoycyclohexenone derivatives” (BASF Aktiengesellschaft, priority 1999, dated 2003).

One data set concerns Abutilon theophrasti. In words: greenhouse post-emergence herbicidal test. In kind it is in vivo, Abutilon theophrasti (velvet leaf). Particulars: application rates of 0.25 or 0.125 kg/ha, 2 to 4 weeks. From the text: (§1) The cultivation containers used were plastic flower pots containing loamy sand with approximately 3.0% of humus as the substrate. The seeds of the test plants were sown separately for each species.
(§2) For the post-emergence treatment, the test plants were first grown to a height of from 3 to 15 cm, depending on the plant habit, and only then treated with the active compounds which had been suspended or emulsified in water. The test plants were for this purpose either sown directly and grown in the same containers, or they were first grown separately as seedlings and transplanted into the test containers a few days prior to treatment. The application rate for the post-emergence treatment was 0.25 or 0.125 kg of a.s. (active substance)/ha.
(§3) Depending on the species, the plants were kept at 10-25° C. or 20-35° C. The test period extended over 2 to 4 weeks. During this time, the plants were tended, and their response to the individual treatments was evaluated.
(§4) The evaluation was carried out using a scale from 0 to 100. 100 means no emergence of the plants, or complete destruction of at least the aerial parts and 0 means no damage, or normal course of growth.
(§5) The plants used in the greenhouse experiments were of the following species: […]

The next data set concerns Avena fatua. Kind of data set: greenhouse post-emergence herbicidal test. Particulars: application rates of 0.25 or 0.125 kg/ha, 2 to 4 weeks. In kind it is in vivo, Avena fatua (wild oat).
Excerpt: as §1, §2, §3, §4, §5

In a further data set the test system is Brachiaria plantaginea. In words: greenhouse post-emergence herbicidal test. Particulars: application rates of 0.25 or 0.125 kg/ha, 2 to 4 weeks. The format is in vivo, Brachiaria plantaginea (alexandergrass).
Excerpt: as §1, §2, §3, §4, §5

The next data set concerns Chenopodium album. Kind of data set: greenhouse post-emergence herbicidal test. In kind it is in vivo, Chenopodium album (lamb's-quarters). As to conditions: application rates of 0.25 or 0.125 kg/ha, 2 to 4 weeks.
Excerpt: as §1, §2, §3, §4, §5

Another data set deals with Echinochloa crus galli. Kind of data set: greenhouse post-emergence herbicidal test. In kind it is in vivo, Echinochloa crus galli (barnyardgrass). As to conditions: application rates of 0.25 or 0.125 kg/ha, 2 to 4 weeks.
Excerpt: as §1, §2, §3, §4, §5

In a further data set the test system is Polygonum persicaria. In words: greenhouse post-emergence herbicidal test. In kind it is in vivo, Polygonum persicaria (lady's-thumb). Particulars: application rates of 0.25 or 0.125 kg/ha, 2 to 4 weeks.
Excerpt: as §1, §2, §3, §4, §5

`Cc1c(C(=O)C2=C(O)CC(C)(C)CC2=O)ccc(S(C)(=O)=O)c1C1=NOC2CC12` (centres unmarked) [Compound 2.1] registered a melting point of 102 °C. For the same compound, the post-emergence action entry in the data set with Abutilon theophrasti is given as “very good”. The post-emergence action entry in the data set on Avena fatua is listed as “very good”. The post-emergence action result in the data set with Brachiaria plantaginea is “very good”. In the data set with Chenopodium album, the post-emergence action entry was “very good”. In addition, the post-emergence action entry with Echinochloa crus galli is recorded as “very good”. The post-emergence action result in the data set with Polygonum persicaria is recorded as “very good”.
Take `Cc1c(C(=O)C2=C(O)C(C)CC(C)C2=O)ccc(S(C)(=O)=O)c1C1=NOC2CC12` (centres unmarked) [Compound 2.3, 2-[2-Methyl-3-(2-oxa-3-azabicyclo[3.1.0]hex-3-en-4-yl)-4-methylsulfonylbenzoyl]-1-hydroxy-4,6-dimethylcyclohex-1-en-3-one]: the melting point fell in the range of 90 to 96 °C.
The compound `CSC1(C)CCC(=O)C(C(=O)c2ccc(S(C)(=O)=O)c(C3=NOC4CC34)c2C)=C1O` (centres unmarked) [Compound 2.5] returned a melting point of 100 to 106 °C.
Same read-out and setting: then `CC1(C)CC(=O)C(C(=O)c2ccc(S(C)(=O)=O)c(C3=NOC4CC34)c2Cl)=C(O)C1` (centres unmarked) [Compound 2.7], with 101 to 105 °C; and `Cc1c(C(=O)C2=C(O)CC(C)(C)CC2=O)ccc(S(C)(=O)=O)c1C1=NOC2(C)CC12` (centres unmarked) [Compound 2.8], with 112 to 120 °C; and `Cc1c(C(=O)C2=C(O)C(C)CC(C)C2=O)ccc(S(C)(=O)=O)c1C1=NOC2(C)CC12` (centres unmarked) [Compound 2.12], with 98 to 112 °C.
As for `Cc1c(C(=O)C2=C(O)CC(C)(C)CC2=O)ccc(S(C)(=O)=O)c1C1=NOC2CC12C` (centres unmarked) [Compound 2.13], the melting point lay in the range of 120 to 127 °C.
The compound `Cc1c(C(=O)C2=C(O)C(C)(C)CCC2=O)ccc(S(C)(=O)=O)c1C1=NOC2(C)CC12` (centres unmarked) [Compound 2.14] came in with a melting point of 120 to 130 °C.
